Values joined by “and” are separate entries in the source; they are usually repeats but may differ in a detail not shown here. Equal entries are not always repeated.
How the values were obtained:
[1] = Pharmacokinetic study: plasma concentration and plasma PK parameters after IV/PO dosing (LC-MS/MS, WinNonlin); format: in vivo, Male SD Rat; conditions: male SD rat, vehicle 20% HP-β-CD in water (POA, freebase) or water (salts); for F / F, Mean: PO 10 mg/kg (equal to freebase) vs IV 3 mg/kg freebase; for F / concentration in plasma / AUCInf / AUClast / AUClast/D / AUC—% Extrap_obs / Cmax / MRTInf_obs / T1/2 / Tmax: individual rats; for F, Mean / concentration in plasma, Mean / AUCInf, Mean / AUClast, Mean / AUClast/D, Mean / AUC—% Extrap_obs, Mean / Cmax, Mean / MRTInf_obs, Mean / T1/2, Mean / Tmax, Mean: mean n=3; for concentration in plasma / concentration in plasma, Mean / AUCInf / AUClast / AUClast/D / AUC—% Extrap_obs / Cmax / MRTInf_obs / T1/2 / Tmax / AUCInf, Mean / AUClast, Mean / AUClast/D, Mean / AUC—% Extrap_obs, Mean / Cmax, Mean / MRTInf_obs, Mean / T1/2, Mean / Tmax, Mean: PO 10 mg/kg (equal to freebase); for AUCInf / AUClast / AUClast/D / AUC—% Extrap_obs / Cmax / MRTInf_obs / T1/2 / Tmax / AUCInf, Mean / AUClast, Mean / AUClast/D, Mean / AUC—% Extrap_obs, Mean / Cmax, Mean / MRTInf_obs, Mean / T1/2, Mean / Tmax, Mean: plasma
Excerpt: Pharmacokinetic and Brain Penetration Study
Dose formulation processing during dosing: The dose formulations will be kept at room temperature.
Concentrations of Test Article in the plasma samples will be analyzed using a LC-MS/MS method.
WinNonlin (Phoenix™, version 6.1) or other similar software will be used for pharmacokinetic calculations. The following pharmacokinetic parameters will be calculated, whenever possible from the plasma concentration versus time data:
IV administration: T1/2, C0, AUClast, AUCinf, MRTinf, Cl, Vss, Number of Points for Regression.
PO administration: T1/2, Cmax, Tmax, MRTinf, AUCinf, AUClast, F %, Number of Points for Regression.
The pharmacokinetic data will be described using descriptive statistics such as mean, standard deviation.

[2] = Solubility studies in water at 2 hours; format: physicochemical
[3] = Dynamic vapor sorption (DVS), hygroscopicity at 25° C.; format: physicochemical; conditions: for hygroscopicity (DVS) / water absorbed in DVS: 25° C.; for water absorbed in DVS: at 80% RH
Procedure: Dynamic Vapor Sorption (DVS)
DVS was determined using DVS Intrinsic (SMS, UK). Transfer about 20 to 50 mg of the compound into a SMS dynamic vapor sorption model DVS and record the weight change with respect to a varying atmospheric humidity at 25° C.

| Compound | F, Mean [1] | concentration in plasma ([1]; 0 h) | concentration in plasma ([1]; 0.25 h, 10 mg/kg) | concentration in plasma, Mean ([1]; 0.25 h) | concentration in plasma ([1]; 0.5 h, 10 mg/kg) | concentration in plasma, Mean ([1]; 0.5 h) | concentration in plasma ([1]; 1 h, 10 mg/kg) | concentration in plasma, Mean ([1]; 1 h) | concentration in plasma ([1]; 2 h, 10 mg/kg) | concentration in plasma, Mean ([1]; 2 h) | concentration in plasma ([1]; 4 h, 10 mg/kg) | concentration in plasma, Mean ([1]; 4 h) | concentration in plasma ([1]; 8 h, 10 mg/kg) | concentration in plasma, Mean ([1]; 8 h) | AUCInf, Mean [1] | AUClast, Mean [1] | AUClast/D, Mean [1] | AUC—% Extrap_obs, Mean [1] | Cmax, Mean [1] | MRTInf_obs, Mean [1] | other results |
| --- | --- | --- | --- | --- | --- | --- | --- | --- | --- | --- | --- | --- | --- | --- | --- | --- | --- | --- | --- | --- | --- |
| COc1cc2c(cc1OC)[C@@H]1Cc3ccc(O)c(OC)c3CN1CC2.O=C(O)/C=C\C(=O)O [TLZ-16 maleate] | 25.5% | BLOQ (BLOQ = below limit of quantitation (0.2 ng/mL)) | 138 ng/mL and 257 ng/mL and 438 ng/mL | 278 ng/mL | 132 ng/mL and 290 ng/mL and 287 ng/mL | 236 ng/mL | 118 ng/mL and 206 ng/mL and 176 ng/mL | 167 ng/mL | 106 ng/mL and 175 ng/mL and 55.8 ng/mL | 112 ng/mL | 104 ng/mL and 116 ng/mL and 69.3 ng/mL | 96.4 ng/mL | 40.8 ng/mL and 34.5 ng/mL and 34.1 ng/mL | 36.5 ng/mL | 998 ng·h/mL | 814 ng·h/mL | 81 kg·ng·h/mL/mg | 19.0% | 289 ng/mL | 4.78 h | F [1]: 21.7% and 33.4% and 21.3%; concentration in plasma ([1]; 24 h): BLOQ (BLOQ = below limit of quantitation (0.2 ng/mL)); AUCInf ([1]; 10 mg/kg): 965 ng·h/mL and 1132 ng·h/mL and 898 ng·h/mL; AUClast ([1]; 10 mg/kg): 725 ng·h/mL and 1007 ng·h/mL and 709 ng·h/mL; AUClast/D ([1]; 10 mg/kg): 72.5 kg·ng·h/mL/mg and 101 kg·ng·h/mL/mg and 70.9 kg·ng·h/mL/mg; AUC—% Extrap_obs ([1]; 10 mg/kg): 24.9% and 11.1% and 21.0%; Cmax ([1]; 10 mg/kg): 138 ng/mL and 290 ng/mL and 438 ng/mL; MRTInf_obs ([1]; 10 mg/kg): 5.88 h and 3.67 h and 4.80 h; T1/2 ([1]; 10 mg/kg): 4.08 h and 2.52 h and 3.83 h; Tmax ([1]; 10 mg/kg): 0.25 h (2×) and 0.5 h; T1/2, Mean [1]: 3.48 h; Tmax, Mean [1]: 0.333 h; solubility in water [2]: approximately 11.0 mg/mL; hygroscopicity (DVS) [3]: slightly hygroscopic; solid form after DVS test [3]: does not change; water absorbed in DVS [3]: about 0.085 wt % |
| COc1cc2c(cc1OC)[C@@H]1Cc3ccc(O)c(OC)c3CN1CC2.Cl [TLZ-16 HCl] | 27.1% | BLOQ (BLOQ = below limit of quantitation (0.2 ng/mL)) | 236 ng/mL and 239 ng/mL and 385 ng/mL | 287 ng/mL | 225 ng/mL and 217 ng/mL and 356 ng/mL | 266 ng/mL | 130 ng/mL and 149 ng/mL and 173 ng/mL | 151 ng/mL | 135 ng/mL and 129 ng/mL and 115 ng/mL | 126 ng/mL | 109 ng/mL and 60.3 ng/mL and 79.2 ng/mL | 82.8 ng/mL | 44.3 ng/mL and 15.6 ng/mL and 14.1 ng/mL | 24.7 ng/mL | 919 ng·h/mL | 891 ng·h/mL | 89 kg·ng·h/mL/mg | 3.70% | 287 ng/mL | 3.32 h | F ([1]; listed as TLZ-16 HC1): 35.9% and 20.7% and 24.7%; concentration in plasma ([1]; 24 h, 10 mg/kg): 0.356 ng/mL and BLOQ (BLOQ = below limit of quantitation (0.2 ng/mL)) (2×); Tmax [1]: 0.25 h; AUCInf ([1]; listed as TLZ-16 HC1, 10 mg/kg): 1217 ng·h/mL and 703 ng·h/mL and 837 ng·h/mL; AUClast ([1]; listed as TLZ-16 HC1, 10 mg/kg): 1216 ng·h/mL and 658 ng·h/mL and 798 ng·h/mL; AUClast/D ([1]; listed as TLZ-16 HC1, 10 mg/kg): 122 kg·ng·h/mL/mg and 65.8 kg·ng·h/mL/mg and 79.8 kg·ng·h/mL/mg; AUC—% Extrap_obs ([1]; listed as TLZ-16 HC1, 10 mg/kg): 0.101% and 6.34% and 4.66%; Cmax ([1]; listed as TLZ-16 HC1, 10 mg/kg): 236 ng/mL and 239 ng/mL and 385 ng/mL; MRTInf_obs ([1]; listed as TLZ-16 HC1, 10 mg/kg): 4.53 h and 2.86 h and 2.58 h; T1/2 ([1]; listed as TLZ-16 HC1, 10 mg/kg): 2.39 h and 1.98 h and 1.92 h; T1/2, Mean [1]: 2.09 h; Tmax, Mean [1]: 0.250 h; solubility in water [2]: approximately 19.1 mg/mL; hygroscopicity (DVS) [3]: slightly hygroscopic; solid form after DVS test [3]: does not change; water absorbed in DVS [3]: about 0.57% |

Reference: patent US11236081B2, “Crystalline salts of corydalmine” (priority 2018, dated 2022)
